Laboratory results: patent US20250136612A1, “4',5'-DIHYDROSPIRO[PIPERIDINE-4,7'-THIENO[2,3-C]PYRAN] DERIVATIVES AS INHIBITORS OF APOL1 AND METHODS OF USING SAME” (VERTEX PHARMACEUTICALS INCORPORATED, priority 2022, published 2025)

Molecular target: T1, APOL1 (Homo sapiens, UniProt O14791)
T1 sequence (O14791 1-398 S342G/I384M): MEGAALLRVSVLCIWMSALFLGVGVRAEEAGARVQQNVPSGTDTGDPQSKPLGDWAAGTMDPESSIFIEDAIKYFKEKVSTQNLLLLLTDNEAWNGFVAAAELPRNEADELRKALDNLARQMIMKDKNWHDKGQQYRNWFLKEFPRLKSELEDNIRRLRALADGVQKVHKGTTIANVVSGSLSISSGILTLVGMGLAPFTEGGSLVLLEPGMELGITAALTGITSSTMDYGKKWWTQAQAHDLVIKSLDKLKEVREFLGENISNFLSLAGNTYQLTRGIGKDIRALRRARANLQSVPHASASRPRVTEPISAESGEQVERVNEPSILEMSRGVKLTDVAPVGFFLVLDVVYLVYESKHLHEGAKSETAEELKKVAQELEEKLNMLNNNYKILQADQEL
Assay: MultiTox-Fluor Multiplex Cytotoxicity Assay in tet-inducible APOL1 T-REx-HEK293 cells
Assay type: cell-based
Details: 50 ng/mL tet, 24 hours, ratio of dead to live cells, read-out: IP50 (i.e., IC50 for cell proliferation)
Procedure: The MultiTox-Fluor Multiplex Cytotoxicity Assay is a single-reagent-addition, homogeneous, fluorescence assay that measures the number of live and dead cells simultaneously in culture wells. The assay measures cell viability and cytotoxicity by detecting two distinct protease activities. The live-cell protease activity is restricted to intact viable cells and is measured using a fluorogenic, cell-permeant peptide glycyl-phenylalanylamino fluorocoumarin (GF-AFC) substrate. The substrate enters intact cells, where it is cleaved to generate a fluorescent signal proportional to the number of living cells. […] A second, cell-impermeant, fluorogenic peptide substrate (bis-AAF-R110 Substrate) is used to measure dead-cell protease that has been released from cells that have lost membrane integrity. A ratio of dead to live cells is used to normalize data.
Briefly, the tet-inducible transgenic APOL1 T-REx-HEK293 cell lines were incubated with 50 ng/mL tet to induce APOL1 in the presence of 3-(2-(4-fluorophenyl)-1H-indol-3-yl)-N-((3S,4R)-4-hydroxy-2-oxopyrrolidin-3-yl)propenamide at 10.03, 3.24, 1.13, 0.356, 0.129, 0.042, 0.129, 0.0045, 0.0015, 0.0005 μM in duplicate for 24 hours in a humidified 37° C. incubator. The MultiTox reagent was added to each well and placed back in the incubator for an additional 30 minutes. The plate was read on the EnVision plate reader. A ratio of dead to live cells was used to normalize, and data was imported, analyzed, and fit using Genedata Screener (Basel, Switzerland) software. Data was normalized using percent of control, no tet (100% viability), and 50 ng/mL tet treated (0% viability),and fit using Smart Fit. The reagents, methods, and complete protocol for the MultiTox assay are described below.
Human embryonic kidney (HEK293) cell lines containing a tet-inducible expression system (T-REx™; Invitrogen, Carlsbad, CA) and Adeno-associated virus site 1 pAAVS1-Puro-APOL1 G0 or pAAVS1-Puro-APOL1 G1 or pAAVS1-Puro-APOL1 G2 Clones G0 DC2.13, G1 DC3.25, and G2 DC4.44 were grown in a T-225 flask at ˜90% confluency in cell growth media (DMEM, 10% Tet-free FBS, 2 mM L-glutamine, 100 Units/mL penicillin-streptomycin, 5 μg/mL blasticidin S HCl, 1 μg/mL puromycin dihydrochloride). Cells were washed with DPBS and then trypsinized to dissociate from the flask. Media was used to quench the trypsin, cells were then pelleted at 200 g and resuspended in fresh cell assay media (DMEM, 2% Tet-free FBS, 2 mM L-glutamine, 100 Units/mL penicillin-streptomycin). Cells were counted and diluted to 1.17×10^6 cells/mL. 20 μL of cells (23,400/well) were dispensed in every well of a 384-well Poly-D-Lysine coated plate using the Multidrop dispenser. The plates were then incubated at room temperature for one hour.
Tetracycline is needed to induce APOL1 expression. 1 mg/mL tet stock in water was diluted to 250 ng/mL (5×) in cell assay media. 60 μL of cell assay media (no tet control) was dispensed in columns 1 and 24, and 60 μL of 5×tet in 384-PP-round bottom plate was dispensed in columns 2 to 23 with the Multidrop dispenser.
Assay ready plates from the Global Compound Archive were ordered using template 384_APOL1Cell_DR10n2_50 uM_v3. Compounds were dispensed at 200 nL in DMSO. The final top concentration was 10 μM with a 10 point 3-fold dilution in duplicate in the MultiTox assay.
20 μL was transferred from the 5×tet plate to the ARP and mixed, then 5 μL of 5×tet and the compounds were transferred to the cell plate and mixed using the Bravo. The cell plate was placed in the humidified 37° C. 5% CO2 incubator for 24 hours.
The MultiTox-Fluor Multiplex Cytotoxicity Assay was performed in accordance with the manufacturer's protocol. After cells were incubated with tet and compound for 24 hours, 25 μL of 1×MultiTox reagent was added to each well using the Multidrop dispenser; the plates were placed on a plate shaker (600 rpm) for 2 minutes, then centrifuged briefly and placed back in the 37° C. incubator for 30 minutes. […]

## Cn1cc([C@@H]2C[C@]3(CCN2)OCC(O)c2cc(Cl)sc23)nn1 (stereo partly drawn) [Compound 36, (2S,4S)-2′-chloro-2-(1-methyl-1H-1,2,3-triazol-4-yl)-4′,5′-dihydrospiro[piperidine-4,7′-thieno[2,3-c]pyran]-4′-ol]
  IC50: 100 to 500 nM

## Cn1cc([C@@H]2C[C@]3(CCN2)OCC(=O)c2cc(Cl)sc23)nn1 [Compound 41, (2S,4S)-2′-chloro-2-(1-methyltriazol-4-yl)spiro[piperidine-4,7′-thieno[2,3-c]pyran]-4′-one]
  IC50: 100 to 500 nM

## [2H]C1([2H])CO[C@]2(CCN[C@H](c3cn(C)nn3)C2)c2sc(Cl)cc21 [Compound 43, (2'S, 7S)-2-chloro-4,4-dideuterio-2′-(1-methyltriazol-4-yl)spiro[5H-thieno[2,3-c]pyran-7,4′-piperidine]]
  IC50: 100 to 500 nM

## Cn1cc(C2CC3(CCN2)OCCc2cc(C4CC(F)(F)C4)sc23)nn1 (stereo not drawn) [Compound 46, 2-(3,3-difluorocyclobutyl)-2′-(1-methyltriazol-4-yl)spiro[4,5-dihydrothieno[2,3-c]pyran-7,4′-piperidine]]
  IC50: 100 to 500 nM

## Cn1cc(C2CC3(CCN2)OCC(O)c2cc(C4CC(F)(F)C4)sc23)nn1 (stereo not drawn) [Compound 47]
  IC50: 500 to 1000 nM

## Cn1cc([C@@H]2CC3(CCN2)OCCc2cc(CC(F)(F)F)sc23)nn1 (stereo partly drawn) [Compound 48]
  IC50: 100 to 500 nM

## Cn1cc(C2CC3(CCN2)OCCc2cc(CC(F)F)sc23)nn1 (stereo not drawn) [Compound 49]
  IC50: < 100 nM

## FC(F)Cc1cc2c(s1)C1(CCNC(c3ccccc3)C1)OCC2 (stereo not drawn) [Compound 50]
  IC50: 100 to 500 nM

## Cn1cc([C@@H]2CC3(CCN2)OCCc2c3sc(C(F)(F)F)c2CO)nn1 (stereo partly drawn) [Compound 51, ((2S)-2-(1-methyl-1H-1,2,3-triazol-4-yl)-2′-(trifluoromethyl)-4′,5′-dihydrospiro[piperidine-4,7′-thieno[2,3-c]pyran]-3′-yl)methanol]
  IC50: < 100 nM

## NC(=O)c1cccc(-n2cc([C@@H]3C[C@]4(CCN3)OCCc3cc(Cl)sc34)nn2)c1 [Compound 54, 3-(4-((2S,4S)-2′-chloro-4′,5′-dihydrospiro[piperidine-4,7′-thieno[2,3-c]pyran]-2-yl)-1H-1,2,3-triazol-1-yl)benzamide]
  IC50: < 100 nM

## Clc1cc2c(s1)[C@@]1(CCN[C@H](c3cn(-c4ccccc4)nn3)C1)OCC2 [Compound 55, (2S,4S)-2′-chloro-2-(1-phenyl-1H-1,2,3-triazol-4-yl)-4′,5′-dihydrospiro[piperidine-4,7′-thieno[2,3-c]pyran]]
  IC50: 100 to 500 nM

## O=C1NCc2ccc(-n3cc([C@@H]4C[C@]5(CCN4)OCCc4cc(Cl)sc45)nn3)cc21 [Compound 56]
  IC50: < 100 nM

## NC(=O)c1cc(-n2cc([C@@H]3C[C@]4(CCN3)OCCc3cc(Cl)sc34)nn2)ccc1F [Compound 57]
  IC50: < 100 nM

## CNC(=O)c1cc(-n2cc([C@@H]3C[C@]4(CCN3)OCCc3cc(Cl)sc34)nn2)ccc1OC [Compound 58]
  IC50: 100 to 500 nM

## NC(=O)c1ccc(-n2cc([C@@H]3C[C@]4(CCN3)OCCc3cc(Cl)sc34)nn2)cc1 [Compound 59]
  IC50: 100 to 500 nM

## CN1Cc2cc(-n3cc([C@@H]4C[C@]5(CCN4)OCCc4cc(Cl)sc45)nn3)ccc2C1=O [Compound 60]
  IC50: 100 to 500 nM

## O=C1NCc2cc(-n3cc([C@@H]4C[C@]5(CCN4)OCCc4cc(Cl)sc45)nn3)ccc21 [Compound 61]
  IC50: 100 to 500 nM

## CN1Cc2ccc(-n3cc([C@@H]4C[C@]5(CCN4)OCCc4cc(Cl)sc45)nn3)cc2C1=O [Compound 62]
  IC50: 100 to 500 nM

## Clc1cc2c(s1)[C@@]1(CCN[C@H](c3cn(-c4cccnc4)nn3)C1)OCC2 [Compound 63]
  IC50: 100 to 500 nM

## Clc1cc2c(s1)[C@@]1(CCN[C@H](c3cn(-c4ccncc4)nn3)C1)OCC2 [Compound 64]
  IC50: 100 to 500 nM

## Oc1ccc(-n2cc([C@@H]3C[C@]4(CCN3)OCCc3cc(Cl)sc34)nn2)cc1 [Compound 65]
  IC50: 100 to 500 nM

## COc1ccccc1-n1cc([C@@H]2C[C@]3(CCN2)OCCc2cc(Cl)sc23)nn1 [Compound 66]
  IC50: 100 to 500 nM

## COc1ccc(-n2cc([C@@H]3C[C@]4(CCN3)OCCc3cc(Cl)sc34)nn2)cc1 [Compound 67]
  IC50: 100 to 500 nM

## CN(C)C(=O)c1ccc(-n2cc([C@@H]3C[C@]4(CCN3)OCCc3cc(Cl)sc34)nn2)cc1 [Compound 68]
  IC50: 100 to 500 nM

## Clc1cc2c(s1)[C@@]1(CCN[C@H](c3cn(-c4ccccn4)nn3)C1)OCC2 [Compound 69]
  IC50: 100 to 500 nM

## Fc1cccc(-n2cc([C@@H]3C[C@]4(CCN3)OCCc3cc(Cl)sc34)nn2)c1 [Compound 70]
  IC50: 100 to 500 nM

## COc1cccc(-n2cc([C@@H]3C[C@]4(CCN3)OCCc3cc(Cl)sc34)nn2)c1 [Compound 71]
  IC50: 100 to 500 nM

## Fc1ccc(-n2cc([C@@H]3C[C@]4(CCN3)OCCc3cc(Cl)sc34)nn2)cc1 [Compound 72]
  IC50: 500 to 1000 nM

## CS(=O)(=O)CCn1cc([C@@H]2C[C@]3(CCN2)OCCc2cc(Cl)sc23)nn1 [Compound 73]
  IC50: 500 to 1000 nM

## Fc1ccccc1-n1cc([C@@H]2C[C@]3(CCN2)OCCc2cc(Cl)sc23)nn1 [Compound 74]
  IC50: 500 to 1000 nM

## Oc1ccccc1-n1cc([C@@H]2C[C@]3(CCN2)OCCc2cc(Cl)sc23)nn1 [Compound 75]
  IC50: 500 to 1000 nM

## COCCn1cc([C@@H]2C[C@]3(CCN2)OCCc2cc(Cl)sc23)nn1 [Compound 76]
  IC50: 500 to 1000 nM

## Clc1cc2c(s1)[C@@]1(CCN[C@H](c3c[nH]nn3)C1)OCC2 [Compound 77]
  IC50: 500 to 1000 nM
